What was measured:
FM3A = assay: Concentration required to inhibit murine mammary carcinoma FM3A cell line proliferation; assay type: functional, cell-based; conditions: Mus musculus
L1210 = assay: Concentration required to inhibit murine leukemia L1210 cell line proliferation; assay type: functional, cell-based; conditions: Mus musculus
MOLT-4 = assay: Concentration required to inhibit human T-lymphoblast Molt4/C8 cell line proliferation; assay type: functional, cell-based
CCRF-CEM = assay: Concentration required to inhibit human T-lymphoblast CEM cell line proliferation; assay type: functional, cell-based
[1] = target: Tubulin beta chain (Bos taurus) (UniProt Q6B856); assay: Inhibition of [3H]colchicine binding to 1 uM beta-tubulin at 2 uM
Chain of Tubulin beta chain (Bos taurus) (UniProt Q6B856) (Q6B856 whole entry): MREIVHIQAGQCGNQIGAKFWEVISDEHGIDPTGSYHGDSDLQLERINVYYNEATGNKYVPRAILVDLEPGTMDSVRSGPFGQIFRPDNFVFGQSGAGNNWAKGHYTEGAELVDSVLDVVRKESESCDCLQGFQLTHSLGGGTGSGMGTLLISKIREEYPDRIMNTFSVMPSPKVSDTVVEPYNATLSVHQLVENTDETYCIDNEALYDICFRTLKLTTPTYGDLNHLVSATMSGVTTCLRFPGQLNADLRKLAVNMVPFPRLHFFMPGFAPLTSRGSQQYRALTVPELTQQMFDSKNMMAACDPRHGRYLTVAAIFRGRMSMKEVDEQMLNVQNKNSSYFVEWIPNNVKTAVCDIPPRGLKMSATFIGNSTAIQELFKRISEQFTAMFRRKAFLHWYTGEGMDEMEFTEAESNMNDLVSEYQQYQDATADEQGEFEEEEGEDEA

[2] = target: Tubulin beta chain (Bos taurus) (UniProt Q6B856); assay: Inhibition of 1 uM [3H]colchicine binding to tubulin at 5 uM
[3] = target: Tubulin beta chain (Bos taurus); assay: Concentration required to inhibit tubulin polymerization at 10 uM

Structure (SMILES) | IC50 (FM3A) [nM] | IC50 (L1210) [nM] | IC50 (MOLT-4) [nM] | IC50 (CCRF-CEM) [nM] | inhibition [1] [%] | inhibition [2] [%] | IC50 [3] [nM]
COc1cc(C(=O)c2[nH]c3ccccc3c2N)cc(OC)c1OC | > 10000 | > 10000 | > 10000 | > 10000 | – | – | –
COc1cc(C(=O)c2sc3cc(C)ccc3c2N)cc(OC)c1OC | 71 | 58 | 34 | 24 | 77 | 88 | 1300
COc1ccc(C(=O)c2c(N)sc3ccccc23)cc1OC | 4700 | 3700 | 1700 | 1700 | – | – | –
COc1cc(C(=O)c2c(N)sc3c2CCCC3)cc(OC)c1OC | 5680 | 2240 | 1580 | 2150 | – | 3 | > 40000
COc1ccc(C(=O)c2c(N)sc3ccccc23)cc1 | > 10000 | > 10000 | 9200 | > 10000 | – | – | –
COc1cc(C(=O)c2oc3ccccc3c2N)cc(OC)c1OC | > 10000 | > 10000 | > 10000 | > 10000 | – | – | –
COc1cc(C(=O)c2c(N)sc3ccccc23)cc(OC)c1OC | – | – | 73 | – | – | 57 | 3100
COc1cc(C(=O)c2sc3ccccc3c2N)cc(OC)c1OC | 1800 | 350 | 290 | 310 | – | 39 | 4200
